Assay results from US20240327347A1, “COMPOUNDS AND METHODS FOR TREATING 5-HT2 […]” (Board of Supervisors of Louisiana State University and …, priority 2021, published 2024).

Assay: structure-activity relationship for anti-inflammatory activity (FIG. 3)
Settings: SAR results
Excerpt: The loss or modification of the 5-methoxy results in reduced efficacy in DOx/2Cx compounds.
We determined that DOx/2Cx structures with a modified or missing 5-methoxy have reduced anti-inflammatory activity (FIG. 3). […] Without wishing to be bound by theory, the 5-methoxy of the DOx/2Cx compounds can engage residues in the binding pocket similar to those that engage the 4-OH of tryptamines, although the residues engaged by tryptamines have not been elucidated because the crystal structure of a tryptamine in the 5-HT2A receptor has not yet been published. […] Thus, without wishing to be bound by theory, a water molecule also must be present there to form a hydrogen bond bridge from the oxygen to N343.
The SAR results as shown in FIG. 3 are consistent with engagement of TM6 N343 by the 5-methoxy or 4-OH of DOx/2Cx or tryptamines, respectively, through a hydrogen bond bridge with a water molecule to produce the conformational change to recruit anti-inflammatory effectors to the activated receptor.

With `CN(C)CCc1c[nH]c2ccccc12` [N,N-DMT, N,N-dimethyltryptamine] the anti-inflammatory efficacy/activity was “complete loss of efficacy”.
